Columns and labels:
[1] = clinical; settings: for AUC(0-t): both, human, plasma, intravenous, propofol Mean AUClast
Experimental: A study is conducted for Compound A. The study is a 3-period, randomized, placebo-controlled, double-blind, crossover study in healthy subjects. The primary objective of the study was to determine the safety and tolerability of Compound A in healthy participants after low and high doses of Compound A under hypoxic and hypercapnic conditions in conjunction with low and high doses of propofol. Another primary objective of the study was to determine the ventilatory response of low and high doses of Compound A under hypoxic and hypercapnic conditions in conjunction with low and high doses of propofol. A secondary objective of the study was to determine the cardiovascular response of low and high doses of Compound A during hypoxic and hypercapnic conditions in conjunction with low and high doses of propofol. Another secondary objective of the study was to evaluate the ventilatory response after administration of Compound A and propofol, under different ventilatory conditions: hypoxia and hyperoxic exposure at normocapnia followed by the same sequence at hypercapnia. The study was conducted in conformance with Good Clinical Practice. The study was a randomized, double-blinded, placebo-controlled, three-way crossover study to assess the safety, tolerability, respiratory PD, and PK of Compound A in healthy male and female participants. Subjects were initially screened up to 6 weeks prior to randomization. Following successful initial medical screening, they were scheduled for the study and receive a randomization number. Subjects underwent 3 separate treatment periods. In each of these periods, low or high doses of Compound A or placebo were continuously perfused throughout for a period of 270 minutes. During each period, subjects received different intravenous propofol dosages or placebo in set order: placebo—propofol low dose—propofol high dose. Each treatment session of propofol or placebo is […]. During each propofol treatment session, different ventilatory conditions are applied, hypoxia and hypercapnia (FIG. 1). […] Each assessment period (i.e., “run”) consists of a hypoxia/hyperoxic exposure at normocapnia followed by one the same sequence at hypercapnia. […] The participants received the following treatments in random order during the dosing periods: • Placebo+placebo/propofol low/propofol high/ • Compound A low+placebo/propofol low/propofol high • Compound A high+placebo/propofol low/propofol high Subjects were admitted to study site on Day −1 for pre-dose activities and eligibility was reassessed and stayed overnight. On each dosing day (Day 1), subjects were transferred to a special unit at study site in the morning (or early afternoon) after a minimum 8 hour overnight fasting. After placement of the respiratory and cardiovascular monitoring/assessment devices including an arterial line, subjects assumed the semi-recumbent position and sufficient time was allowed for subjects to resume a normal breathing pattern. After completion of baseline evaluations, all measurements were performed as per the schedule of assessments. Upon completion of all measurements on the dosing day, subjects were monitored overnight and assessed the next morning (at least 12 hours post study treatments) prior to discharge (Day 2). Subjects were not immediately discharged in cases where prolonged care is required (e.g., due to adverse event, residual sedation etc.) and were treated as necessary. Duration of Treatment: Participation was approximately 10 weeks divided as follows: • Screening: Up to 42 days before first dosing • Treatment phase of approximately 21 days, including three treatment and study assessment periods of 3 days each with approximately 7 days (minimum of 3) between dosing days • Follow up 7 days after last dosing Healthy adult subjects were selected for the study.

[2] = tested on: healthy participants; settings: propofol during placebo infusion
[3] = during infusion with Compound A high dose
[4] = during infusion with Compound A low dose

CC(C)c1cccc(C(C)C)c1O [propofol]
AUC(0-t) [1, 3]: 6150 ± 1170 ng·h/mL | AUC(0-t) [1, 4]: 5750 ± 1180 ng·h/mL | AUC(0-t) ([1]; during infusion with placebo): 4600 ± 548 ng·h/mL | propofol peak plasma concentration, mean (±SD) [1, 3]: 2620.0 ± 1093.86 ng/mL | propofol peak plasma concentration, mean (±SD) [1, 4]: 2534.2 ± 1192.34 ng/mL | propofol peak plasma concentration, mean (±SD) ([1]; during infusion with placebo): 1880.8 ± 265.45 ng/mL | Propofol plasma concentrations during infusion with Compound A compared to placebo infusion ([1]; in vivo): tended to be higher during infusion with Compound A | Propofol plasma concentrations versus targeted concentration ([1]; propofol high dose infusion, target 1200 ng/mL): exceeding those targeted | propofol Geometric mean Cav200-270 min ([1]; propofol high dose interval, range across treatments): 1525.12 to 1862.45 ng/mL | propofol Geometric mean Cav115-185 min ([1]; propofol low dose interval, range across treatments): 452.62 to 559.80 ng/mL | Effect of propofol on hypoxic sensitivity [2]: decreased hypoxic sensitivity

Reference: US12138267B2, “Methods of treating respiratory depression modulated by a non-opioid agent” (Enalare Therapeutics Inc., priority 2021, dated 2024)
